Patent US5416191A, “Bradykinin antagonists” (Cortech, Inc., priority 1993, dated 1995)
Where two headings read alike, the source gives them in different places. Square brackets hold non-standard residues; d marks the D form. Peptide text beside a SMILES is read from it. * marks the point of attachment. Hyp = O=C(O)[C@@H]1C[C@@H](O)CN1; X19 = CCCCCCNC(=O)C*

Molecular target: T1, bradykinin receptor of the B2 class (rat uterus) (Rattus norvegicus, UniProt P25023)
T1 construct: concentration effect curves to bradykinin (BK) on rat uterus in vitro; from tissue; host or cells: rat uterus
T1 sequence (P25023 1-396): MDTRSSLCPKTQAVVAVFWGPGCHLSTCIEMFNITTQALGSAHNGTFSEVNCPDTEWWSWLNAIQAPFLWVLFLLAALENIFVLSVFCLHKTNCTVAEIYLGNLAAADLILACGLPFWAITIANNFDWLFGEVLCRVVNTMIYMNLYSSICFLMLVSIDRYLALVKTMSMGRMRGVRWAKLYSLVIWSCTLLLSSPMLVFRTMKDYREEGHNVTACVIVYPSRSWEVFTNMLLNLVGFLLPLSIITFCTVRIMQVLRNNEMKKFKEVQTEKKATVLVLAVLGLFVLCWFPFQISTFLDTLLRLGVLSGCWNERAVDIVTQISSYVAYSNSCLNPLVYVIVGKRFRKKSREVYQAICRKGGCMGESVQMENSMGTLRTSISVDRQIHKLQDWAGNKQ
Experiment: Rat uterus (RU) in vitro, antagonism of bradykinin
Details: for % RECOVERY: rat uterus
Experimental: Thus in vitro studies were performed on standard assay systems, namely, guinea-pig ileum (GPI), rat uterus (RU) and rabbit jugular vein (RJV). […] The PA2 can be defined as the negative logarithm of the molar concentration of the antagonist in the presence of which the potency of the agonist is reduced two-fold, i.e. twice the amount of agonist is required to produce a given response in the presence of, than in the absence of, the antagonist. A high potency of antagonism is indicated by a high PA2 value, i.e., a low concentration of antagonist is effective.
The percentage recovery (% Rec) was also determined for compounds with respect to each assay.
With respect to duration of activity, it is noted that after exposure to the highest concentration of antagonist, each tissue was washed extensively and then assessed for recovery from the antagonist effect.
Potency in the rat uterus assay was assessed as described above and PA2 values determined.

[1] = Table D, effect of linker length, read-out: pA2 (UTERUS) (converted)

With CC(C)C[C@H](NC(=O)[C@@H](Cc1ccccc1)NC(=O)[C@H](CSC1CC(=O)N(CCCCCCCCCN2C(=O)CC(SC[C@H](NC(=O)[C@H](Cc3ccccc3)NC(=O)CNC(=O)[C@@H]3C[C@@H](O)CN3C(=O)[C@@H]3CCCN3C(=O)[C@H](CCCNC(=N)N)NC(=O)[C@H](N)CCCNC(=N)N)C(=O)N[C@H](Cc3ccccc3)C(=O)N[C@@H](CC(C)C)C(=O)N[C@@H](CCCNC(=N)N)C(=O)O)C2=O)C1=O)NC(=O)[C@H](Cc1ccccc1)NC(=O)CNC(=O)[C@@H]1C[C@@H](O)CN1C(=O)[C@@H]1CCCN1C(=O)[C@H](CCCNC(=N)N)NC(=O)[C@H](N)CCCNC(=N)N)C(=O)N[C@@H](CCCNC(=N)N)C(=O)O (stereo partly shown) [CP-0229] (HELM PEPTIDE1{[dR].R.P.[Hyp].G.F.C.[dF].L.R}|PEPTIDE2{[dR].R.P.[Hyp].G.F.C.[dF].L.R}|CHEM1{[O=C1CC([*:1])C(=O)N1CCCCCCCCCN1C(=O)CC([*:2])C1=O]}$PEPTIDE1,CHEM1,7:R3-1:R1|PEPTIDE2,CHEM1,7:R3-1:R2$$$V2.0) the “% REC (40 MIN)” value (Table D) was 0-10% and the Kb [1] was 1 nM.
In the case of CC(C)C[C@H](NC(=O)[C@@H](Cc1ccccc1)NC(=O)[C@H](CSC1CC(=O)N(CCCCN2C(=O)CC(SC[C@H](NC(=O)[C@H](Cc3ccccc3)NC(=O)CNC(=O)[C@@H]3C[C@@H](O)CN3C(=O)[C@@H]3CCCN3C(=O)[C@H](CCCNC(=N)N)NC(=O)[C@H](N)CCCNC(=N)N)C(=O)N[C@H](Cc3ccccc3)C(=O)N[C@@H](CC(C)C)C(=O)N[C@@H](CCCNC(=N)N)C(=O)O)C2=O)C1=O)NC(=O)[C@H](Cc1ccccc1)NC(=O)CNC(=O)[C@@H]1C[C@@H](O)CN1C(=O)[C@@H]1CCCN1C(=O)[C@H](CCCNC(=N)N)NC(=O)[C@H](N)CCCNC(=N)N)C(=O)N[C@@H](CCCNC(=N)N)C(=O)O (stereo partly shown) [CP-0209] (HELM PEPTIDE1{[dR].R.P.[Hyp].G.F.C.[dF].L.R}|PEPTIDE2{[dR].R.P.[Hyp].G.F.C.[dF].L.R}|CHEM1{[O=C1CC([*:1])C(=O)N1CCCCN1C(=O)CC([*:2])C1=O]}$PEPTIDE1,CHEM1,7:R3-1:R1|PEPTIDE2,CHEM1,7:R3-1:R2$$$V2.0), the “% REC (40 MIN)” value (Table D) is reported as 50% and the Kb [1] is reported as 6.31 nM.
For CCCCCCNC(=O)CSC[C@H](NC(=O)[C@H](Cc1ccccc1)NC(=O)CNC(=O)[C@@H]1C[C@@H](O)CN1C(=O)[C@@H]1CCCN1C(=O)[C@H](CCCNC(=N)N)NC(=O)[C@H](N)CCCNC(=N)N)C(=O)N[C@H](Cc1ccccc1)C(=O)N[C@@H](CC(C)C)C(=O)N[C@@H](CCCNC(=N)N)C(=O)O [CP-0266] (H-[dR]RP[Hyp]GFC(X19)[dF]LR-OH), the Kb (Table H, monomer modifications, read-out: RAT UTERUS pA2 (converted)) was 6.31 nM and the “% RECOVERY” value (Table H) was 70%.
For N=C(N)NCCC[C@@H](N)C(=O)N[C@@H](CCCNC(=N)N)C(=O)N1CCC[C@H]1C(=O)N1C[C@H](O)C[C@H]1C(=O)NCC(=O)N[C@@H](Cc1ccccc1)C(=O)N[C@@H](CO)C(=O)N[C@H](Cc1ccccc1)C(=O)N[C@@H](Cc1ccccc1)C(=O)N[C@@H](CCCNC(=N)N)C(=O)O [CP-0181, DArg^0 -Arg^1 -Pro^2 -Hyp^3 -Gly^4 -Phe^5 -Ser^6 -DPhe^7 -Phe^8 -Arg^9, reference compound], the “% RECOVERY” value (Table F) was 100% and the Kb (Table F, read-out: RAT UTERUS pA2 (converted)) was 100 nM.
For CC(C)C[C@H](NC(=O)[C@@H](Cc1ccccc1)NC(=O)[C@H](CSC1CC(=O)N(CCN2C(=O)CC(SC[C@H](NC(=O)[C@H](Cc3ccccc3)NC(=O)CNC(=O)[C@@H]3C[C@@H](O)CN3C(=O)[C@@H]3CCCN3C(=O)[C@H](CCCNC(=N)N)NC(=O)[C@H](N)CCCNC(=N)N)C(=O)N[C@H](Cc3ccccc3)C(=O)N[C@@H](CC(C)C)C(=O)N[C@@H](CCCNC(=N)N)C(=O)O)C2=O)C1=O)NC(=O)[C@H](Cc1ccccc1)NC(=O)CNC(=O)[C@@H]1C[C@@H](O)CN1C(=O)[C@@H]1CCCN1C(=O)[C@H](CCCNC(=N)N)NC(=O)[C@H](N)CCCNC(=N)N)C(=O)N[C@@H](CCCNC(=N)N)C(=O)O (stereo partly shown) [CP-0162] (HELM PEPTIDE1{[dR].R.P.[Hyp].G.F.C.[dF].L.R}|PEPTIDE2{[dR].R.P.[Hyp].G.F.C.[dF].L.R}|CHEM1{[O=C1CC([*:1])C(=O)N1CCN1C(=O)CC([*:2])C1=O]}$PEPTIDE1,CHEM1,7:R3-1:R1|PEPTIDE2,CHEM1,7:R3-1:R2$$$V2.0), the “% REC (40 MIN)” value (Table D) was 90% and the Kb [1] was 5.01 nM.
